According to paper PMC4076210, “Discovery of Novel AKT Inhibitors with Enhanced Anti-Tumor Effects in Combination with the MEK Inhibitor” (PLoS ONE, 2014):
Read-outs that look alike come from different tables or passages of the source.

What was measured:
Format in all cases: biochemical
RIPK2(h) = target: T1, RIPK2(h) (Homo sapiens, UniProt O43353); assay: Kinase panel
T1 construct: purchased Millipore KinaseProfiler

BRK(h) = target: T2, BRK(h) (Homo sapiens, UniProt Q13882); assay: Kinase panel
T2 construct: purchased Millipore KinaseProfiler
T2 sequence (Q13882 whole entry): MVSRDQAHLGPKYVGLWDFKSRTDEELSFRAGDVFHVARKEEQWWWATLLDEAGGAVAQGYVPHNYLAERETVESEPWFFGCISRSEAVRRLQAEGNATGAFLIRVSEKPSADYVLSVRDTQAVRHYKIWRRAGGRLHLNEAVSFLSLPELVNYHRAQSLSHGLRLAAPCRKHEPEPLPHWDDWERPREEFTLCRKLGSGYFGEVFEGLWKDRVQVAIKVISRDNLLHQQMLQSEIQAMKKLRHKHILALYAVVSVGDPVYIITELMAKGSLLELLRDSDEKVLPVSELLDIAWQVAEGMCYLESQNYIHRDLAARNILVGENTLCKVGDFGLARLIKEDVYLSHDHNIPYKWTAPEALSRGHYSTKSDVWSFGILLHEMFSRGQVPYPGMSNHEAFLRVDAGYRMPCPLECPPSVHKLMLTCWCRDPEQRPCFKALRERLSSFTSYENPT

HIPK1(h) = target: T3, HIPK1(h) (Homo sapiens, UniProt Q86Z02); assay: Kinase panel
T3 construct: purchased Millipore KinaseProfiler

EphA7(h) = target: T4, EphA7(h) (Homo sapiens, UniProt Q15375); assay: Kinase panel
T4 construct: purchased Millipore KinaseProfiler
T4 sequence (Q15375 28-998): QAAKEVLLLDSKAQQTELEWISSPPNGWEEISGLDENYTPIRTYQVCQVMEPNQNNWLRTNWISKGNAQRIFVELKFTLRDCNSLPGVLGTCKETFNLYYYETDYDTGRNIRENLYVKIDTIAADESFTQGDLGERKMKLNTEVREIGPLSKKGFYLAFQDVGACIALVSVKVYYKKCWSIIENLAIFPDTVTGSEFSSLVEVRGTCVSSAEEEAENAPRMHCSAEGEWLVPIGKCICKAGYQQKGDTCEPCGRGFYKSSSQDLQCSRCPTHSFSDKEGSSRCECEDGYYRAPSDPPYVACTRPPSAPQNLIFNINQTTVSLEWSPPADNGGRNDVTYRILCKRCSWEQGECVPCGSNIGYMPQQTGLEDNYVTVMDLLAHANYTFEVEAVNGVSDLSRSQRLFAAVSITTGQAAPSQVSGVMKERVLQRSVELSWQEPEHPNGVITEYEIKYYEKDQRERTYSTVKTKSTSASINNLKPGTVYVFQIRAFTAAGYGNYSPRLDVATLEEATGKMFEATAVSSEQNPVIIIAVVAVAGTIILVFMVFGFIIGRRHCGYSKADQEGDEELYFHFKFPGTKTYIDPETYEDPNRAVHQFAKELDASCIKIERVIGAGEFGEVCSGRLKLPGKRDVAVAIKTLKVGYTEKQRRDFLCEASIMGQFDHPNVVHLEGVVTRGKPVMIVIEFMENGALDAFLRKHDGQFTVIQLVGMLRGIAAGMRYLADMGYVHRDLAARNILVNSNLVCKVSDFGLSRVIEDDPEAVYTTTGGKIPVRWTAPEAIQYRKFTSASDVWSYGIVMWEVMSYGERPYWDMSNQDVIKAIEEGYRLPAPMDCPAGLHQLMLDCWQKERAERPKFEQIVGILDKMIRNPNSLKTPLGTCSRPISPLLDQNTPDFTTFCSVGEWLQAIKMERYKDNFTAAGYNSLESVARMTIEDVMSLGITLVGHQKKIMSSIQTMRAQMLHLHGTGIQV

c-RAF(h) = target: T5, c-RAF(h) (Homo sapiens, UniProt P04049); assay: Kinase panel
T5 construct: purchased Millipore KinaseProfiler

eEF-2K(h) = target: T6, eEF-2K(h) (Homo sapiens, UniProt O00418); assay: Kinase panel
T6 construct: purchased Millipore KinaseProfiler

NEK2(h) = target: T7, NEK2(h) (Homo sapiens, UniProt P51955); assay: Kinase panel
T7 construct: purchased Millipore KinaseProfiler
T7 sequence (P51955 1-445): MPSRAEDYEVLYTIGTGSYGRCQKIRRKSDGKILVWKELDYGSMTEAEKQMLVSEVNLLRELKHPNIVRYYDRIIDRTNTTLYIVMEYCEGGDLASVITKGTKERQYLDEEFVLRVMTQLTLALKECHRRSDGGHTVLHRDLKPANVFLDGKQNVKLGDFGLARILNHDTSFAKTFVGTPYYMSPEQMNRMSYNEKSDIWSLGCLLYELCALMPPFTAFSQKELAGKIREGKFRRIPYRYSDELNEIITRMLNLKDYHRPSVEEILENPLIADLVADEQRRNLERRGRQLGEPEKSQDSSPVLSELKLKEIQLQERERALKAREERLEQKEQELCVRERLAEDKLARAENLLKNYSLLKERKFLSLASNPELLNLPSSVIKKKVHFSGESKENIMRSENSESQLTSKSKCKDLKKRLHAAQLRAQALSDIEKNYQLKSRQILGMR

FGFR2(N549H)(h) = target: T8, FGFR2(N549H)(h) (Homo sapiens, UniProt P21802, N549H); assay: Kinase panel
T8 construct: purchased Millipore KinaseProfiler

PKCε = PKCε (Homo sapiens, UniProt Q02156); assay: Kinase IC50 assay
CaMKIIβ(h) = target: T9, CaMKIIβ(h) (Homo sapiens, UniProt Q13554); assay: Kinase panel
T9 construct: purchased Millipore KinaseProfiler
T9 sequence (Q13554 whole entry): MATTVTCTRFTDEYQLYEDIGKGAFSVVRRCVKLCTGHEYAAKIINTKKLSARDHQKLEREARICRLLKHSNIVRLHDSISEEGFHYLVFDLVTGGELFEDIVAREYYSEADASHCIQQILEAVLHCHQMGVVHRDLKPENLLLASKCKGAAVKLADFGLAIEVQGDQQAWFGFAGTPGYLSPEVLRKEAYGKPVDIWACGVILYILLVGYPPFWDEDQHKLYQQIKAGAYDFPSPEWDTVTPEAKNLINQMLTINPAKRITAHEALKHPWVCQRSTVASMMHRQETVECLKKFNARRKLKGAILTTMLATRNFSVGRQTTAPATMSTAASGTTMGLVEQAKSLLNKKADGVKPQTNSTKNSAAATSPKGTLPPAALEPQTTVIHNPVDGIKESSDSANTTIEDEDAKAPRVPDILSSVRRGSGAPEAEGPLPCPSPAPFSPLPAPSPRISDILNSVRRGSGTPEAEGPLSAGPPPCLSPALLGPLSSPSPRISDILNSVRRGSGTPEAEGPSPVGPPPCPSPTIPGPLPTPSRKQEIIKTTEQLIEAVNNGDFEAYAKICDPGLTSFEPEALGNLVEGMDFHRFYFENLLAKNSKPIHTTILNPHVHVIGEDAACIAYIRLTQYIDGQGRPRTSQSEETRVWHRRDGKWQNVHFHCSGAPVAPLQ

PASK(h) = target: T10, PASK(h) (Homo sapiens, UniProt Q96RG2); assay: Kinase panel
T10 construct: purchased Millipore KinaseProfiler

TrkB(h) = target: T11, TrkB(h) (Homo sapiens, UniProt Q16620); assay: Kinase panel
T11 construct: purchased Millipore KinaseProfiler
T11 sequence (Q16620 32-822): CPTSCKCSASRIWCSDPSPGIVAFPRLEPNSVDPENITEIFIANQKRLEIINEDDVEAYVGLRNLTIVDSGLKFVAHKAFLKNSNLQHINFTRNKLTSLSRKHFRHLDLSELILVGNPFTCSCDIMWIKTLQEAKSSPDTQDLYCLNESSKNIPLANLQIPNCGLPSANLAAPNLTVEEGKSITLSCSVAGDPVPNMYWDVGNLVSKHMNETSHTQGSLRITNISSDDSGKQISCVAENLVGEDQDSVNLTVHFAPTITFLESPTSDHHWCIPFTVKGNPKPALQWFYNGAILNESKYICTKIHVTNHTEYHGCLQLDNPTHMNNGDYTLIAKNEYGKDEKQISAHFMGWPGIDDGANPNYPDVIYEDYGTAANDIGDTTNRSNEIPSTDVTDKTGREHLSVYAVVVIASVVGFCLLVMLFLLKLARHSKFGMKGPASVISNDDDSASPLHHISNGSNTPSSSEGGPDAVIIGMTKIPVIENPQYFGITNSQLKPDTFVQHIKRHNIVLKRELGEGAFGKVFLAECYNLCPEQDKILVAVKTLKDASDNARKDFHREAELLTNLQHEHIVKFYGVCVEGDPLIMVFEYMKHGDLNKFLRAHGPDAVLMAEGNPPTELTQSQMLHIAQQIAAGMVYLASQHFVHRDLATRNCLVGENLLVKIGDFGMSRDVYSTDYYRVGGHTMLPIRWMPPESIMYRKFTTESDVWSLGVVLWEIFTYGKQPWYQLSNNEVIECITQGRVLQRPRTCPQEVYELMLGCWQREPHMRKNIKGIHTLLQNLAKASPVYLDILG

BrSK1(h) = target: T12, BrSK1(h) (Homo sapiens, UniProt Q8TDC3); assay: Kinase panel
T12 construct: purchased Millipore KinaseProfiler
T12 sequence (Q8TDC3 1-778): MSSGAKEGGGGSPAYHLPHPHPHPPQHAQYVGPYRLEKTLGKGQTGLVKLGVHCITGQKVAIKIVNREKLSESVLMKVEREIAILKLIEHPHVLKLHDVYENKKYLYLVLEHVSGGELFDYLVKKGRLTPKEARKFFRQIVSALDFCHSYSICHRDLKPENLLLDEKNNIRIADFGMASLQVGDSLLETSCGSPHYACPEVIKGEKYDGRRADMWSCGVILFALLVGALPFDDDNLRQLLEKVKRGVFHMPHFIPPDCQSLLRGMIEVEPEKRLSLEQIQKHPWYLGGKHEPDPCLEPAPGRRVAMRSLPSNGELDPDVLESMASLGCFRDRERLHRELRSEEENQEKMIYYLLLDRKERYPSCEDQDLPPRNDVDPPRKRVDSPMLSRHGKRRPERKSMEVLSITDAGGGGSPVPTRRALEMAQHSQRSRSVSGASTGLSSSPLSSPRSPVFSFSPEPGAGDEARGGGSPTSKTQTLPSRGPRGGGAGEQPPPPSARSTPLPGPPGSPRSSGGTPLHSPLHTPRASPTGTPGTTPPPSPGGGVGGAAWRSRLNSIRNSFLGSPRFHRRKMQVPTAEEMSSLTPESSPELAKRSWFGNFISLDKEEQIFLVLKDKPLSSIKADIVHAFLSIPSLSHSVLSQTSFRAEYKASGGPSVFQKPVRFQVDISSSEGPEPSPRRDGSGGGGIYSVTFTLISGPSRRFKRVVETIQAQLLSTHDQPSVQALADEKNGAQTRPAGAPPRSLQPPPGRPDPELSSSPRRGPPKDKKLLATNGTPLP

Fer(h) = target: T13, Fer(h) (Homo sapiens, UniProt P16591); assay: Kinase panel
T13 construct: purchased Millipore KinaseProfiler

CDK3/cyclinE(h) = target: T14, CDK3/cyclinE(h) (Homo sapiens, UniProt Q00526); assay: Kinase panel
T14 construct: purchased Millipore KinaseProfiler

ALK(h) = target: T15, ALK(h) (Homo sapiens, UniProt Q9UM73); assay: Kinase panel
T15 construct: purchased Millipore KinaseProfiler
T15 sequence (Q9UM73 19-1620): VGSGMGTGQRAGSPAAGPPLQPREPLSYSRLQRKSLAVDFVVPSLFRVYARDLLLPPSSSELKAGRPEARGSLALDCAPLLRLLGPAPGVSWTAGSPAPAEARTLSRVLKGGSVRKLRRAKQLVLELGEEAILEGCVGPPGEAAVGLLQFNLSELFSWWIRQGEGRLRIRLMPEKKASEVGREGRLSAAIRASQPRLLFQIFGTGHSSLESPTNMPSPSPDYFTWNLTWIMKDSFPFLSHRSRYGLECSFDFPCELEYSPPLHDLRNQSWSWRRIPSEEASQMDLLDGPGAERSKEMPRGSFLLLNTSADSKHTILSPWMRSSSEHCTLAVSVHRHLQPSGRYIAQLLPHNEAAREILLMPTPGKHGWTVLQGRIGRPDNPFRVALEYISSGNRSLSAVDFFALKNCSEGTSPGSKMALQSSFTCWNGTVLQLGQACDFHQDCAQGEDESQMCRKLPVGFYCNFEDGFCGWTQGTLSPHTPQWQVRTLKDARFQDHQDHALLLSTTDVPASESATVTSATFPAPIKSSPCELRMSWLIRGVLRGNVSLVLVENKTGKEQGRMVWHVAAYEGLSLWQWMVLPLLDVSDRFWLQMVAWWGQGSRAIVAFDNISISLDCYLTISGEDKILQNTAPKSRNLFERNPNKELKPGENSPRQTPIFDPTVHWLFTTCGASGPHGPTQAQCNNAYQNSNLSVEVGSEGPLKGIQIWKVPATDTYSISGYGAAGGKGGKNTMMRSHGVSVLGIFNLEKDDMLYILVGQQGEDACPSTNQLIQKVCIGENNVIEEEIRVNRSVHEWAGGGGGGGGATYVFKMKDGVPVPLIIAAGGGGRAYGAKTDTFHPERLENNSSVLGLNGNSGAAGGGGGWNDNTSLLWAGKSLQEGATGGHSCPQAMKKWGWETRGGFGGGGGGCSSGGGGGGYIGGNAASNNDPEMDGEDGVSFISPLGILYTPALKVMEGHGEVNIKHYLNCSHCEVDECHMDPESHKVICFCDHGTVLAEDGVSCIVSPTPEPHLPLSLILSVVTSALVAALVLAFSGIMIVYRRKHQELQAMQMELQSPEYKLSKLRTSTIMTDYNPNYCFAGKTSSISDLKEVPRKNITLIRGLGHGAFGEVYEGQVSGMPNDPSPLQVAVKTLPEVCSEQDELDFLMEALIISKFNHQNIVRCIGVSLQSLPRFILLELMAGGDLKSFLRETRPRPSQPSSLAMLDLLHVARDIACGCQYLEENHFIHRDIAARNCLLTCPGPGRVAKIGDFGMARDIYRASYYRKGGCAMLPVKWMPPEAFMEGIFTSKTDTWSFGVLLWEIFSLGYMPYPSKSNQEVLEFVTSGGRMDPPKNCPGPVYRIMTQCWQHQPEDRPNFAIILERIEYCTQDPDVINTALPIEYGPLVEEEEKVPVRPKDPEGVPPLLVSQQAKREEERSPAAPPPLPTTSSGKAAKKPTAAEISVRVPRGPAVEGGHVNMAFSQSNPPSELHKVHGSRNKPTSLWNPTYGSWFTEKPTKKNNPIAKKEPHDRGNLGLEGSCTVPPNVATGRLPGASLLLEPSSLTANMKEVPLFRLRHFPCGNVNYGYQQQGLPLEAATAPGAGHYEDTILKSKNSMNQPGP

PTK5(h) = target: T16, PTK5(h) (Homo sapiens, UniProt P42685); assay: Kinase panel
T16 construct: purchased Millipore KinaseProfiler

Arg(h) = target: T17, Arg(h) (Homo sapiens, UniProt P42684); assay: Kinase panel
T17 construct: purchased Millipore KinaseProfiler

T1 sequence (O43353 whole entry): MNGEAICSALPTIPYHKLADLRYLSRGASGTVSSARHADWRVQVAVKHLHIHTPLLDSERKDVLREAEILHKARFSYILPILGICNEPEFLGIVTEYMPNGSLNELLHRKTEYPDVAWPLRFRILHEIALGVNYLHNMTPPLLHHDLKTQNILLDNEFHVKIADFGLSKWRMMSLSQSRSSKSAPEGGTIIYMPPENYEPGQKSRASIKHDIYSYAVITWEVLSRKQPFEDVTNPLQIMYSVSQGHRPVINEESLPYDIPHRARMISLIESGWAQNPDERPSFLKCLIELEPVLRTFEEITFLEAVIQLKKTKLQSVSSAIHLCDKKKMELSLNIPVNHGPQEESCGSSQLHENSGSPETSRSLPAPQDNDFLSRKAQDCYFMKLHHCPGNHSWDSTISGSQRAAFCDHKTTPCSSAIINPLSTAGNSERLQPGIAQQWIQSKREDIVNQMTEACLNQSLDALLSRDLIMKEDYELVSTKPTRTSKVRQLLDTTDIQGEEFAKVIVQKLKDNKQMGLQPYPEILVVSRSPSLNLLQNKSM

Q: For `Cn1ncc(Cl)c1-c1cc(C(=O)N[C@H](CN)Cc2cccc(F)c2)sc1Cl` [GSK2110183], which inhibition at 0.5 µM (RIPK2(h)) is on record?
A: -8%

Q: And the inhibition at 10 µM (RIPK2(h))?
A: -3%

Q: What about the inhibition at 0.5 µM (BRK(h)) of the same molecule?
A: 0%

Q: What about the inhibition at 10 µM (BRK(h)) of the same molecule?
A: -2%

Q: What about the inhibition at 0.5 µM (HIPK1(h)) of the same molecule?
A: 9%

Q: And the inhibition at 10 µM (HIPK1(h))?
A: 72%

Q: What about the inhibition at 0.5 µM (EphA7(h)) of the same molecule?
A: -4%

Q: And the inhibition at 10 µM (EphA7(h))?
A: 8%

Q: What about the inhibition at 0.5 µM (c-RAF(h)) of the same molecule?
A: -2%

Q: What about the inhibition at 10 µM (c-RAF(h)) of the same molecule?
A: 11%

Q: What about the inhibition at 0.5 µM (eEF-2K(h)) of the same molecule?
A: -3%

Q: And the inhibition at 10 µM (eEF-2K(h))?
A: 13%

Q: What about the inhibition at 0.5 µM (NEK2(h)) of the same molecule?
A: -10%

Q: And the inhibition at 10 µM (NEK2(h))?
A: -8%

Q: What about the inhibition at 0.5 µM (FGFR2(N549H)(h)) of the same molecule?
A: -1%

Q: And the inhibition at 10 µM (FGFR2(N549H)(h))?
A: -1%

Q: And the IC50 (PKCε)?
A: > 1000 nM

Q: What about the inhibition at 0.5 µM (CaMKIIβ(h)) of the same molecule?
A: 5%

Q: What about the inhibition at 10 µM (CaMKIIβ(h)) of the same molecule?
A: 61%

Q: What about the inhibition at 0.5 µM (PASK(h)) of the same molecule?
A: 4%

Q: What about the inhibition at 10 µM (PASK(h)) of the same molecule?
A: 45%

Q: What about the inhibition at 0.5 µM (TrkB(h)) of the same molecule?
A: 15%

Q: And the inhibition at 10 µM (TrkB(h))?
A: 74%

Q: And the inhibition at 0.5 µM (BrSK1(h))?
A: -3%

Q: And the inhibition at 10 µM (BrSK1(h))?
A: 10%

Q: What about the inhibition at 0.5 µM (Fer(h)) of the same molecule?
A: -8%

Q: What about the inhibition at 10 µM (Fer(h)) of the same molecule?
A: 16%

Q: And the inhibition at 0.5 µM (CDK3/cyclinE(h))?
A: 0%

Q: And the inhibition at 10 µM (CDK3/cyclinE(h))?
A: 20%

Q: And the inhibition at 0.5 µM (ALK(h))?
A: -22%

Q: And the inhibition at 10 µM (ALK(h))?
A: 0%

Q: What about the inhibition at 0.5 µM (PTK5(h)) of the same molecule?
A: 4%

Q: And the inhibition at 10 µM (PTK5(h))?
A: 18%

Q: What about the inhibition at 0.5 µM (Arg(h)) of the same molecule?
A: -3%

Q: And the inhibition at 10 µM (Arg(h))?
A: -1%

Q: Which inhibition at 0.5 µM (RIPK2(h); 0.5 µM, read-out: % Inhibition) does the source give for `Cn1ncc(Cl)c1-c1cc(C(=O)N[C@H](CN)Cc2ccc(F)c(F)c2)oc1Cl` [GSK2141795] here?
A: 3%

Q: And the inhibition at 10 µM (RIPK2(h); 10 µM, read-out: % Inhibition)?
A: 15%

Q: And the inhibition at 0.5 µM (BRK(h); 0.5 µM, read-out: % Inhibition)?
A: -15%

Q: And the inhibition at 10 µM (BRK(h); 10 µM, read-out: % Inhibition)?
A: 25%

Q: What about the inhibition at 0.5 µM (HIPK1(h); 0.5 µM, read-out: % Inhibition) of the same molecule?
A: 2%

Q: And the inhibition at 10 µM (HIPK1(h); 10 µM, read-out: % Inhibition)?
A: 62%

Q: And the inhibition at 0.5 µM (EphA7(h); 0.5 µM, read-out: % Inhibition)?
A: -3%

Q: And the inhibition at 10 µM (EphA7(h); 10 µM, read-out: % Inhibition)?
A: 16%

Q: And the inhibition at 0.5 µM (c-RAF(h); 0.5 µM, read-out: % Inhibition)?
A: -4%

Q: What about the inhibition at 10 µM (c-RAF(h); 10 µM, read-out: % Inhibition) of the same molecule?
A: 13%

Q: And the inhibition at 0.5 µM (eEF-2K(h); 0.5 µM, read-out: % Inhibition)?
A: 4%

Q: And the inhibition at 10 µM (eEF-2K(h); 10 µM, read-out: % Inhibition)?
A: 3%

Q: What about the inhibition at 0.5 µM (NEK2(h); 0.5 µM, read-out: % Inhibition) of the same molecule?
A: -4%

Q: And the inhibition at 10 µM (NEK2(h); 10 µM, read-out: % Inhibition)?
A: 2%

Q: What about the inhibition at 0.5 µM (FGFR2(N549H)(h); 0.5 µM, read-out: % Inhibition) of the same molecule?
A: -2%

Q: What about the inhibition at 10 µM (FGFR2(N549H)(h); 10 µM, read-out: % Inhibition) of the same molecule?
A: -5%

Q: What about the IC50 (PKCε) of the same molecule?
A: > 1000 nM

Q: What about the inhibition at 0.5 µM (CaMKIIβ(h); 0.5 µM, read-out: % Inhibition) of the same molecule?
A: 15%

Q: What about the inhibition at 10 µM (CaMKIIβ(h); 10 µM, read-out: % Inhibition) of the same molecule?
A: 75%

Q: What about the inhibition at 0.5 µM (PASK(h); 0.5 µM, read-out: % Inhibition) of the same molecule?
A: 11%

Q: And the inhibition at 10 µM (PASK(h); 10 µM, read-out: % Inhibition)?
A: 49%

Q: What about the inhibition at 0.5 µM (TrkB(h); 0.5 µM, read-out: % Inhibition) of the same molecule?
A: 27%

Q: What about the inhibition at 10 µM (TrkB(h); 10 µM, read-out: % Inhibition) of the same molecule?
A: 85%

Q: And the inhibition at 0.5 µM (BrSK1(h); 0.5 µM, read-out: % Inhibition)?
A: -2%

Q: What about the inhibition at 10 µM (BrSK1(h); 10 µM, read-out: % Inhibition) of the same molecule?
A: 7%

Q: And the inhibition at 0.5 µM (Fer(h); 0.5 µM, read-out: % Inhibition)?
A: 1%

Q: And the inhibition at 10 µM (Fer(h); 10 µM, read-out: % Inhibition)?
A: -4%

Q: What about the inhibition at 0.5 µM (CDK3/cyclinE(h); 0.5 µM, read-out: % Inhibition) of the same molecule?
A: -13%

Q: What about the inhibition at 10 µM (CDK3/cyclinE(h); 10 µM, read-out: % Inhibition) of the same molecule?
A: 30%

Q: What about the inhibition at 0.5 µM (ALK(h); 0.5 µM, read-out: % Inhibition) of the same molecule?
A: -8%

Q: What about the inhibition at 10 µM (ALK(h); 10 µM, read-out: % Inhibition) of the same molecule?
A: -4%

Q: What about the inhibition at 0.5 µM (PTK5(h); 0.5 µM, read-out: % Inhibition) of the same molecule?
A: 11%

Q: And the inhibition at 10 µM (PTK5(h); 10 µM, read-out: % Inhibition)?
A: 70%

Q: What about the inhibition at 0.5 µM (Arg(h); 0.5 µM, read-out: % Inhibition) of the same molecule?
A: -13%

Q: What about the inhibition at 10 µM (Arg(h); 10 µM, read-out: % Inhibition) of the same molecule?
A: -17%
